Molecular target: T1, recombinant human 17β-hydroxysteroid dehydrogenase type 1 (Homo sapiens, UniProt P14061)
T1 construct: made in house; host or cells: Sf9 insect cells (baculovirus, Bac to Bac Expression System)
T1 sequence (P14061 1-328): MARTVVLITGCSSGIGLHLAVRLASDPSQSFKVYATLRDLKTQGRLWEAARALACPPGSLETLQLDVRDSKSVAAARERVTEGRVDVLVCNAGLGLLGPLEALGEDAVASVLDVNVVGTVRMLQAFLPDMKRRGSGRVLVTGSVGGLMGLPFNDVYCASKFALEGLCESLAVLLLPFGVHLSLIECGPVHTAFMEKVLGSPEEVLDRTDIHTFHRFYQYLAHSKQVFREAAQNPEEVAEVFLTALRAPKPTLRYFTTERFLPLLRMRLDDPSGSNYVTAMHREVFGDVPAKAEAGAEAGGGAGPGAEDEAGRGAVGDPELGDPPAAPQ
Test: Inhibition of recombinant human 17β-hydroxysteroid dehydrogenase type 1 (conversion of 3H-estrone to estradiol, HPLC)
Assay type: biochemical
Details: 30 nM 3H-estrone, 1 mM NADPH, 30 min at RT; for inhibition at 0.1 µM: inhibitor 100 nM, read-out: Inhibition of rec. 17β-HSD1 (% inhibition), 100 nM; for inhibition at 1 µM: inhibitor 1 μm, read-out: Inhibition of rec. 17β-HSD1 (% inhibition), 1 μm
Procedure: 1. Inhibition of the 17β-hydroxysteroid Dehydrogenase Type 1 Enzyme
17β-HSD1 Purification: Recombinant baculovirus was generated by the “Bac to Bac Expression System” (Invitrogen). Recombinant bacmid was transfected to Sf9 insect cells using “Cellfectin Reagent” (Invitrogen). 60 h later cells were harvested; the microsomal fraction was isolated as described by Puranen et al. 1994. Aliquots were stored frozen until determination of enzymatic activity.
Assay—Inhibition of Recombinant Human 17β-hydroxysteroid Dehydrogenase Type 1:
Recombinant protein (0.1 μg/ml) was incubated in 20 mM KH2PO4 pH 7.4 with 30 nM 3H-estrone and 1 mM NADPH for 30 min at RT, in the presence of potential inhibitors at concentrations of 1 μM or 0.1 μM. Inhibitor stock solutions were prepared in DMSO. Final concentration of DMSO was adjusted to 1% in all samples. The enzyme reaction was stopped by addition of 10% trichloroacetic acid (final concentration). Samples were centrifuged in a microtiter plate at 4000 rpm for 10 min. Supernatants were applied to reverse phase HPLC on a Waters Symmetry C18 column, equipped with a Waters Sentry Guard column. Isocratic HPLC runs were performed at RT at a flow rate of 1 ml/min of acetonitrile:water 48:52 as running solvent. Radioactivity was monitored in the eluate by a Packard Flow Scintillation Analyzer. Total radioactivity for estrone and estradiol were determined in each sample and percent conversion of estrone to estradiol was calculated according to the following formula:
Percent inhibition was calculated as follows: % inhibition=100−% conversion

Compound	inhibition at 0.1 µM [%]	inhibition at 1 µM [%]
COc1ccc(S(=O)(=O)NC[C@H]2CC(=O)[C@@]3(C)CC[C@@H]4c5ccc(O)cc5CC[C@H]4[C@H]23)cc1 [Example 668]	52.4	88.3
Cc1cccc(S(=O)(=O)NC[C@H]2CC(=O)[C@@]3(C)CC[C@@H]4c5ccc(O)cc5CC[C@H]4[C@H]23)c1 [Example 677]	36.9	83.7
C[C@]12CC[C@@H]3c4ccc(O)cc4CC[C@H]3[C@@H]1[C@@H](CNS(=O)(=O)c1cc(S(=O)(=O)c3ccccc3)cs1)CC2=O [Example 679]	26.5	74.6
CN(C[C@H]1CC(=O)[C@@]2(C)CC[C@@H]3c4ccc(O)cc4CC[C@H]3[C@H]12)S(=O)(=O)c1ccc2ccccc2c1 [Example 681]	39.7	87.1
CN(C[C@H]1CC(=O)[C@@]2(C)CC[C@@H]3c4ccc(O)cc4CC[C@H]3[C@H]12)S(=O)(=O)c1cccs1 [Example 682]	49.2	91.8
CN(C[C@H]1CC(=O)[C@@]2(C)CC[C@@H]3c4ccc(O)cc4CC[C@H]3[C@H]12)S(=O)(=O)c1ccccc1 [Example 684]	31.3	86.9
CN(C[C@H]1CC(=O)[C@@]2(C)CC[C@@H]3c4ccc(O)cc4CC[C@H]3[C@H]12)S(=O)(=O)c1ccc(F)cc1 [Example 685]	36	85.6
COc1ccc(S(=O)(=O)N(C)C[C@H]2CC(=O)[C@@]3(C)CC[C@@H]4c5ccc(O)cc5CC[C@H]4[C@H]23)cc1 [Example 688]	47.4	91.3
CN(C[C@H]1CC(=O)[C@@]2(C)CC[C@@H]3c4ccc(O)cc4CC[C@H]3[C@H]12)S(=O)(=O)c1cccc(Cl)c1 [Example 693]	25.8	80.1
Cc1cccc(S(=O)(=O)N(C)C[C@H]2CC(=O)[C@@]3(C)CC[C@@H]4c5ccc(O)cc5CC[C@H]4[C@H]23)c1 [Example 694]	34.6	87.3
CN(C[C@H]1CC(=O)[C@@]2(C)CC[C@@H]3c4ccc(O)cc4CC[C@H]3[C@H]12)S(=O)(=O)c1cc(S(=O)(=O)c2ccccc2)cs1 [Example 696]	35.7	80.5
COc1ccc2c(c1)CC[C@H]1[C@@H]3[C@H](CCCOC(=O)Nc4ccc(Cl)cc4Cl)CC(=O)[C@@]3(C)CC[C@H]21 [Example 744]	37.1	53.9
COc1ccc2c(c1)CC[C@H]1[C@@H]3[C@H](CCCOC(=O)Nc4ccc(C(F)(F)F)cc4)CC(=O)[C@@]3(C)CC[C@H]21 [Example 745]	29.9	53.5
COc1ccc2c(c1)CC[C@H]1[C@@H]3[C@H](CCCOC(=O)Nc4ccc5c(c4)OCO5)CC(=O)[C@@]3(C)CC[C@H]21 [Example 748]	48.7	90.6
COc1ccc2c(c1)CC[C@H]1[C@@H]3[C@H](CCCOC(=O)Nc4ccc(Cl)c(Cl)c4)CC(=O)[C@@]3(C)CC[C@H]21 [Example 749]	29.8	57.3
COc1ccc2c(c1)CC[C@H]1[C@@H]3[C@H](CCCCOC(=O)Nc4cccc(F)c4)CC(=O)[C@@]3(C)CC[C@H]21 [Example 751]	27.7	67.7
COc1ccc2c(c1)CC[C@H]1[C@@H]3[C@H](CCCCOC(=O)Nc4cccc([N+](=O)[O-])c4)CC(=O)[C@@]3(C)CC[C@H]21 [Example 754]	29.3	65.1
C[C@]12CC[C@@H]3c4ccc(O)cc4CC[C@H]3[C@@H]1[C@H](CCCO)CC2=O [Example 823, 3-Hydroxy-15β-(3-Hydroxypropyl)-estra-1,3,5(10)-trien-17-one]	76.1	97
